{"source": "patent US7745191B2", "about": "“Method of producing heterodimer derivative of protein phosphatase type 2A enzyme” (Tropical Technology Center Ltd., priority 2005, dated 2010)", "assay": "Phosphatase activity of the purified protein using p-nitrophenylphosphate as substrate", "assay_type": "biochemical", "details": "infected High Five cells incubated at 19° C. for 4 days versus 27° C. for 3 days (comparative example); FIG. 4", "method": "By SDS-PAGE (0.2 μg of protein; 10% SDS-gel), the purified recombinant protein in the recovered eluate was confirmed. The activity of the purified protein was determined according to a method using p-nitrophenylphosphate as substrate (Takai et al. 1995, Biochem J. 306:657-665).\nIn both figures, the term “27° C.” indicates the tagged catalytic unit of PP2A (comparative example), which was prepared in the same manner as in Example 3 except that the cells infected with the recombinant baculovirus was incubated at 27° C. for 3 days. In FIG. 3, the both end side lanes indicate a marker, the 2nd lane from left indicates the tagged catalytic unit of PP2A prepared by incubation at 27° C., and the 3rd lane from left indicates the tagged catalytic unit of PP2A prepared by incubation at 19° C."}
{"substance": "tagged catalytic unit of PP2A: Recombinant human PP2A catalytic subunit carrying a polyhistidine tag (His-PP2Acα, His-PP2Acβ), expressed in baculovirus-infected High Five cells", "values": [{"measurement": "enhancement of activity to p-nitrophenylphosphate", "result": "≥ 6", "unit": "times"}]}
